Where two headings read alike, the source gives them in different places.
Legend:
[1] = system: Actinomadura pelletieri IFM0903; test: Sensitivity of the producing strain against antibiotics; format: cell-based; details: Actinomadura pelletieri IFM0903, strain characterisation
[2] = system: gram-positive bacteria; test: Antimicrobial activity (MIC), summary for gram-positive bacteria; format: cell-based; details: range over the gram-positive bacteria of Table 5
Description: (§1) Antimicrobial activity of JK-1 was determined by measuring the minimum growth inhibition concentration (MIC) as follows.
(§2) MIC values of JK against a variety of microorganisms were determined on a Mueller-Hinton broth containing 0.2% glucose according to the rule of Japanese Society of Chemotherapy (Kouseibussitsu Taiyo (The Essentials of Antibiotics), 4th ed., University of Tokyo Press, 1992).
(§3) JK-1 was dissolved in methanol, and diluted with the above medium, repeating 2-fold dilution starting from 1 mg/ml. Test microorganisms were added to the above medium to give a test solution of 1×10^6 cells/ml. The JK solution (20 μl) and the test solution (180 μl) were dispensed in a 96 well microplate and incubated at 37° C. After 24 hours, either positive or negative growth was confirmed visually, and the MIC value was caluculated.

[3] = system: gram-negative bacteria and fungi; test: Antimicrobial activity (MIC), summary for gram-negative bacteria and fungi; format: cell-based; details: summary of Table 5
Description: as §1, §2, §3

[4] = system: clinically freshly isolated MRSAs; test: Anti-MRSA activity (MIC), 11 clinically freshly isolated MRSA strains; format: cell-based, Staphylococcus aureus; details: for MIC: Staphylococcus aureus, MRSA
Description: as §1, §2, §3
Among gram-positive bacteria, there was no difference between MIC values, especially, of Staphylococcus aureus and its multi-drug resistant strain MRSA (Table 5) which have become a clinical problem. In this situation, the antimicrobial activity of JK-1 was compared to that of commercially available 3 drugs in 11 strains of clinically freshly isolated MRSAs.

[5] = system: MRSA; test: Antimicrobial activity (MIC, broth dilution); format: cell-based, Staphylococcus aureus; details: 24 hours, 37° C.
Description: as §1, §2, §3

[6] = system: Micrococcus luteus; test: Antimicrobial activity (MIC, broth dilution); format: cell-based; details: 24 hours, 37° C.
Description: as §1, §2, §3

[7] = system: Gordonia bronchialis; test: Antimicrobial activity (MIC, broth dilution); format: cell-based; details: 24 hours, 37° C.
Description: as §1, §2, §3

[8] = system: Candida albicans; test: Antimicrobial activity (MIC, broth dilution); format: cell-based; details: 24 hours, 37° C.
Description: as §1, §2, §3

[9] = system: Staphylococcus aureus 209P; test: Antimicrobial activity (MIC, broth dilution); format: cell-based; details: 24 hours, 37° C.
Description: as §1, §2, §3

[10] = system: Escherichia coli NIH JC-2; test: Antimicrobial activity (MIC, broth dilution); format: cell-based; details: Escherichia coli NIH JC-2, 24 hours, 37° C.
Description: as §1, §2, §3

[11] = system: Asperigillus niger; test: Antimicrobial activity (MIC, broth dilution); format: cell-based; details: 24 hours, 37° C.
Description: as §1, §2, §3

[12] = system: Nocardia asteroides; test: Antimicrobial activity (MIC, broth dilution); format: cell-based; details: 24 hours, 37° C.
Description: as §1, §2, §3

[13] = system: Corynebacterium xerosis; test: Antimicrobial activity (MIC, broth dilution); format: cell-based; details: 24 hours, 37° C.
Description: as §1, §2, §3

[14] = system: Bacillus subtilis PCII89; test: Antimicrobial activity (MIC, broth dilution); format: cell-based; details: Bacillus subtilis PCII89, 24 hours, 37° C.
Description: as §1, §2, §3

O=c1[nH]cc(F)c(=O)[nH]1 [Compound 5-FU, 5-FU]
positive: Sensitivity against Antibiotics [1]

CCCC1C=CC2C=C(C)C(OC3CC(NC)C(NC(=O)c4c(O)ccc(Cl)c4C)C(C)O3)CC=CC3C(CC)=CC4C(O)C(O)CC(C)C4C3(C)C(=O)C3=C(O)C2(C1)OC3=O (stereo not shown) [JK-1]
0.025 to 0.39 µg/mL: MIC values against gram-positive bacteria [2]
1.56 µg/mL: MIC values ([4]; MRSA strain 3670)
0.78 µg/mL: MIC values ([4]; MRSA strain S-1)
0.2 µg/mL: MIC values ([4]; MRSA strain 3666) | MIC values ([4]; MRSA strain 3667) | MIC values ([4]; MRSA strain 3668) | MIC values ([4]; MRSA strain 3669) | MIC values ([4]; MRSA strain S-4) | MIC values ([4]; MRSA strain S-5)
about 6 times: activity relative to vancomycin ([4]; 11 strains of clinically freshly isolated MRSAs)
0.39 µg/mL: MIC values ([4]; MRSA strain S-2) | MIC values ([4]; MRSA strain S-3) | MIC values [7] | MIC values [14]
0.1 µg/mL: MIC values ([4]; MRSA strain 3671)
No antimicrobial activity: antimicrobial activity against gram-negative bacteria and fungi [3]
>100 µg/mL: MIC values [8] | MIC values [10] | MIC values [11]
0.05 µg/mL: MIC values [5] | MIC values [6] | MIC values [9] | MIC values [12]
0.025 µg/mL: MIC values [13]

CCCC1C=CC2C=C(C)C(OC3CC(N)C(NC(=O)c4c(O)ccc(Cl)c4C)C(C)O3)CC=CC3C(CC)=CC4C(O)C(O)CC(C)C4C3(C)C(=O)C3=C(O)C2(C1)OC3=O (stereo not shown) [JK-2]
0.39 µg/mL: MIC values ([4]; MRSA strain S-3) | MIC values ([4]; MRSA strain S-4)
0.78 µg/mL: MIC values ([4]; MRSA strain 3670) | MIC values ([4]; MRSA strain S-1) | MIC values ([4]; MRSA strain S-2)
0.2 µg/mL: MIC values ([4]; MRSA strain 3666) | MIC values ([4]; MRSA strain 3667) | MIC values ([4]; MRSA strain 3668) | MIC values ([4]; MRSA strain 3669) | MIC values ([4]; MRSA strain 3671) | MIC values ([4]; MRSA strain S-5)

NC[C@H]1O[C@H](O[C@H]2[C@H](O)[C@@H](O[C@H]3O[C@H](CO)[C@@H](O)[C@H](N)[C@H]3O)[C@H](N)C[C@@H]2N)[C@H](N)C[C@@H]1O [Tobramycin]
positive: Sensitivity against Antibiotics [1]

CC[C@H]1OC(=O)[C@H](C)[C@@H](O[C@H]2C[C@@](C)(OC)[C@@H](O)[C@H](C)O2)[C@H](C)[C@@H](O[C@@H]2O[C@H](C)C[C@H](N(C)C)[C@H]2O)[C@](C)(O)C[C@@H](C)C(=O)[C@H](C)[C@@H](O)[C@]1(C)O [erythromycin]
> 100 µg/mL: MIC ([4]; MRSA strain 3666, read-out: MIC values) | MIC ([4]; MRSA strain 3667, read-out: MIC values) | MIC ([4]; MRSA strain 3668, read-out: MIC values) | MIC ([4]; MRSA strain 3669, read-out: MIC values) | MIC ([4]; MRSA strain 3670, read-out: MIC values) | MIC ([4]; MRSA strain 3671, read-out: MIC values) | MIC ([4]; MRSA strain S-1, read-out: MIC values) | MIC ([4]; MRSA strain S-3, read-out: MIC values) | MIC ([4]; MRSA strain S-4, read-out: MIC values) | MIC ([4]; MRSA strain S-5, read-out: MIC values)
12.5 µg/mL: MIC ([4]; MRSA strain S-2, read-out: MIC values)

CC1(C)S[C@@H]2[C@H](NC(=O)Cc3ccccc3)C(=O)N2[C@H]1C(=O)O [penicillin-G]
>100 µg/mL: MIC values ([4]; MRSA strain 3666) | MIC values ([4]; MRSA strain 3667) | MIC values ([4]; MRSA strain 3668) | MIC values ([4]; MRSA strain 3669) | MIC values ([4]; MRSA strain 3670) | MIC values ([4]; MRSA strain 3671) | MIC values ([4]; MRSA strain S-1) | MIC values ([4]; MRSA strain S-2) | MIC values ([4]; MRSA strain S-3) | MIC values ([4]; MRSA strain S-4) | MIC values ([4]; MRSA strain S-5)

CN[C@H](CC(C)C)C(=O)N[C@H]1C(=O)N[C@@H](CC(N)=O)C(=O)N[C@H]2C(=O)N[C@H]3C(=O)N[C@H](C(=O)N[C@H](C(=O)O)c4cc(O)cc(O)c4-c4cc3ccc4O)[C@H](O)c3ccc(c(Cl)c3)Oc3cc2cc(c3O[C@@H]2O[C@H](CO)[C@@H](O)[C@H](O)[C@H]2O[C@H]2C[C@](C)(N)[C@H](O)[C@H](C)O2)Oc2ccc(cc2Cl)[C@H]1O [vancomycin]
1.56 µg/mL: MIC ([4]; read-out: MIC values, MRSA strain 3666) | MIC ([4]; read-out: MIC values, MRSA strain 3668) | MIC ([4]; read-out: MIC values, MRSA strain S-3) | MIC ([4]; read-out: MIC values, MRSA strain S-4) | MIC ([4]; read-out: MIC values, MRSA strain S-5)
3.13 µg/mL: MIC ([4]; read-out: MIC values, MRSA strain 3667) | MIC ([4]; read-out: MIC values, MRSA strain S-2)
0.78 µg/mL: MIC ([4]; read-out: MIC values, MRSA strain 3669) | MIC ([4]; read-out: MIC values, MRSA strain 3670) | MIC ([4]; read-out: MIC values, MRSA strain 3671)
6.25 µg/mL: MIC ([4]; read-out: MIC values, MRSA strain S-1)

— patent publication US6693085B2, “Macrolide compound JK” (Higeta Shoyu Co., Ltd., priority 2000, dated 2004)
